From US9593149B2, “Amylin and calcitonin receptor agonist” (Novo Nordisk A/S, priority 2014, dated 2017)
In brackets after ≈: the same amount, converted by molar mass. Numbered stars: 1 amine (or outer) side, 2 acyl side, 3 side chain; on linkers, the order of the positions; unused ones are H or OH. Side chains are listed from the residue outwards. Peptide text beside a SMILES is read from it. * marks the point of attachment. C20 diacid = O=C(O)CCCCCCCCCCCCCCCCCCC(=O)*; C18 diacid = O=C(O)CCCCCCCCCCCCCCCCC(=O)*; γGlu = O=C(O)[C@H](CCC(=O)[*:2])N[*:1]

Key:
[1] = Assay (IV) determination of solubility; assay type: physicochemical
Method: Assay (IV)—Determination of Solubility
The mimylin peptide was dissolved in water at ˜500 nmol/ml and mixed 1:1 with a series of buffers (100 mM glycylglycine pH 3.0, 100 mM glycylglycine pH 4.0, 100 mM glycylglycine pH 5.0, 100 mM bistrispropane pH 6.0, 100 mM bistrispropane pH 6.5, 100 mM bistrispropane pH 7.0, 100 mM bistrispropane pH 7.5, 100 mM bistrispropane pH 8.0).

[2] = biological target: T1, human calcitonin (a) receptor, BHK570 cells (Homo sapiens, UniProt P30988); experiment: Assay (II)b functional CRE-luciferase assay without albumin, human calcitonin receptor; assay type: cell-based; settings: Tested without HSA; read-out: hCTR funct. EC50
T1 construct: host or cells: BHK570
T1 sequence (P30988 25-474): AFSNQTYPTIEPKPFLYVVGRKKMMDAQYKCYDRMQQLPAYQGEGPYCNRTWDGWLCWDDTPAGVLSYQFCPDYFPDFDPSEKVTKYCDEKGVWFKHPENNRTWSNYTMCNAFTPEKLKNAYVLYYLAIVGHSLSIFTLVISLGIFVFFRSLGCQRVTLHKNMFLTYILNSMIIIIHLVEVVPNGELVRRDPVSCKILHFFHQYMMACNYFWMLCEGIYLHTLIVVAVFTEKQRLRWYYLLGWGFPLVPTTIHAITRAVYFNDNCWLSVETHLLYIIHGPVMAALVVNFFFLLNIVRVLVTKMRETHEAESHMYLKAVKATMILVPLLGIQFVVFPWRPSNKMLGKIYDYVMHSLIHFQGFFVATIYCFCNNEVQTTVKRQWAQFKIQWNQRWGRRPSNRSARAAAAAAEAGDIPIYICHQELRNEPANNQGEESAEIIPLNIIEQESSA
Outline: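 BHK570 cells stably expressing human calcitonin receptor with CRE-luciferase reporter, plus RAMP-3 for the amylin 3(a) line. Cells stimulated 3 hours at 37 °C in albumin-free assay medium (0.1% ovalbumin, 10 mM Hepes pH 7.4); cAMP-driven luciferase read by luminescence.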

[3] = biological target: T1, human calcitonin (a) receptor, BHK570 cells; experiment: Assay (II)a functional CRE-luciferase assay with albumin, human calcitonin receptor; assay type: cell-based; settings: Tested with HSA; read-out: hCTR funct. EC50
Outline: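 BHK570 cells stably carry a CRE-luciferase reporter and the calcitonin receptor; co-transfected RAMP-3 gives the amylin 3(a) receptor line. Cells were treated for 3 h at 37 °C in DMEM with 10% FBS and 10 mM Hepes, pH 7.4. cAMP-driven luciferase was read by LucLite luminescence after 30 min at RT.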

[4] = biological target: T2, human amylin receptor (human calcitonin receptor + human RAMP3), BHK tk'ts 13 cells (Homo sapiens, UniProt O60896+P30988); experiment: Assay (Va) binding to the human amylin receptor (whole cell); settings: read-out: hAmylin-R binding IC50
T2 construct: expressed in transfected cells; host or cells: BHK tk'ts 13
Method: The day before the assay the cells were Seeded into Poly-D-Lysin coated 384W Opaque White, BD BioCoat plates (10000 cells/well) and Incubated overnight at 37° C., 5% CO2, 95% humidity.

T2 sequence (O60896 24-148, one chain of several): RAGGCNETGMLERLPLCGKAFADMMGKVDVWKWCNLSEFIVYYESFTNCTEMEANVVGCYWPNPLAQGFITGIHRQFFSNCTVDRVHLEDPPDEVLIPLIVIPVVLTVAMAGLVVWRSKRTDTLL

Row | SMILES | Solubility ([1]; pH 3.0) | Solubility ([1]; pH 4.0) | Solubility ([1]; pH 5.0) | Solubility ([1]; pH 6.0) | Solubility ([1]; pH 6.5) | Solubility ([1]; pH 7.0) | Solubility ([1]; pH 7.5) | Solubility ([1]; pH 8.0) | EC50 [2] [nM] | EC50 [3] [nM] | IC50 [4] [nM] | solubility at 18 h ([1]; bistrispropane buffer, pH 6.5) [µM] | solubility at 18 h ([1]; bistrispropane buffer, pH 7.5) [µM] | solubility at 18 h ([1]; bistrispropane buffer, pH 6.0) [µM] | solubility at 18 h ([1]; bistrispropane buffer, pH 7.0) [µM] | solubility at 18 h ([1]; bistrispropane buffer, pH 8.0) [µM] | solubility at 18 h ([1]; glycylglycine buffer, pH 3.0) [µM] | solubility at 18 h ([1]; glycylglycine buffer, pH 4.0) [µM] | solubility at 18 h ([1]; glycylglycine buffer, pH 5.0) [µM]
1 | CC(C)C[C@H](NC(=O)[C@H](C)NC(=O)[C@H](C)NC(=O)[C@@H](NC(=O)[C@H](CO)NC(=O)[C@H](CC(C)C)NC(=O)[C@H](CCC(=O)O)NC(=O)[C@H](CO)NC(=O)[C@H](C)NC(=O)[C@H](CCC(=O)O)NC(=O)CCCCCCCCCCCCCCCCC(=O)O)[C@@H](C)O)C(=O)NCC(=O)N[C@@H](CCCNC(=N)N)C(=O)N[C@@H](CC(C)C)C(=O)N[C@@H](CO)C(=O)N[C@@H](C)C(=O)N[C@@H](CCC(=O)O)C(=O)N[C@@H](CC(C)C)C(=O)N[C@@H](Cc1cnc[nH]1)C(=O)N[C@@H](CCC(=O)O)C(=O)N[C@@H](CC(C)C)C(=O)N[C@@H](C)C(=O)N[C@H](C(=O)N[C@@H](CC(C)C)C(=O)N1CCC[C@H]1C(=O)N[C@@H](CCCNC(=N)N)C(=O)N[C@H](C(=O)N[C@@H](CCC(=O)O)C(=O)N[C@H](C(=O)NCC(=O)N1CCC[C@H]1C(=O)N[C@@H](CCC(=O)O)C(=O)N[C@@H](CO)C(=O)N1CCC[C@H]1C(N)=O)[C@@H](C)O)[C@@H](C)O)[C@@H](C)O [Ex. #2, [N-terminal(C18 diacid)]mimylin] ({C18 diacid}-EASELSTAALGRLSAELHELATLPRTETGPESP-NH2) | ≧200 μM | ≧200 μM | ≧200 μM | ≧200 μM | ≧200 μM | ≧200 μM | ≧200 μM | ≧200 μM |  |  |  |  |  |  |  |  |  |  | 
2 | CC(C)C[C@H](NC(=O)[C@H](C)NC(=O)[C@H](C)NC(=O)[C@@H](NC(=O)[C@H](CO)NC(=O)[C@H](CC(C)C)NC(=O)[C@H](CCC(=O)O)NC(=O)[C@H](CO)NC(=O)[C@H](C)NC(=O)[C@H](C)NC(=O)CC[C@H](NC(=O)CCCCCCCCCCCCCCCCCCC(=O)O)C(=O)O)[C@@H](C)O)C(=O)NCC(=O)N[C@@H](CCCNC(=N)N)C(=O)N[C@@H](CC(C)C)C(=O)N[C@@H](CO)C(=O)N[C@@H](C)C(=O)N[C@@H](CCC(=O)O)C(=O)N[C@@H](CC(C)C)C(=O)N[C@@H](Cc1c[nH]cn1)C(=O)N[C@@H](CCC(=O)O)C(=O)N[C@@H](CC(C)C)C(=O)N[C@@H](C)C(=O)N[C@H](C(=O)N[C@@H](Cc1ccc(O)cc1)C(=O)N1CCC[C@H]1C(=O)N[C@@H](CCCNC(=N)N)C(=O)N[C@H](C(=O)N[C@@H](CCC(=O)O)C(=O)N[C@H](C(=O)NCC(=O)N[C@@H](CO)C(=O)NCC(=O)N[C@@H](CO)C(=O)N1CCC[C@H]1C(N)=O)[C@@H](C)O)[C@@H](C)O)[C@@H](C)O [compound 57, [N-terminal(C20 diacid-gGlu), 1A, 23Y, 30S, 31G]mimylin] ({C20 diacid-γGlu}-AASELSTAALGRLSAELHELATYPRTETGSGSP-NH2) |  |  |  |  |  |  |  |  | 0.022 | 0.051 | 1.23 | ≥ 200 | ≥ 200 | ≥ 200 | ≥ 200 | ≥ 200 | ≥ 200 | ≥ 200 | ≥ 200
3 | CC(=O)N[C@@H](C)C(=O)N[C@@H](CO)C(=O)N[C@@H](CCCCNC(=O)CC[C@H](NC(=O)CCCCCCCCCCCCCCCCCCC(=O)O)C(=O)O)C(=O)N[C@@H](CC(C)C)C(=O)N[C@@H](CO)C(=O)N[C@H](C(=O)N[C@@H](C)C(=O)N[C@@H](C)C(=O)N[C@@H](CC(C)C)C(=O)NCC(=O)N[C@@H](CCCNC(=N)N)C(=O)N[C@@H](CC(C)C)C(=O)N[C@@H](CO)C(=O)N[C@@H](C)C(=O)N[C@@H](CCC(=O)O)C(=O)N[C@@H](CC(C)C)C(=O)N[C@@H](Cc1c[nH]cn1)C(=O)N[C@@H](CCC(=O)O)C(=O)N[C@@H](CC(C)C)C(=O)N[C@@H](C)C(=O)N[C@H](C(=O)N[C@@H](CC(C)C)C(=O)N1CCC[C@H]1C(=O)N[C@@H](CCCNC(=N)N)C(=O)N[C@H](C(=O)N[C@@H](CCC(=O)O)C(=O)N[C@H](C(=O)NCC(=O)N[C@@H](CO)C(=O)NCC(=O)N[C@@H](CO)C(=O)N1CCC[C@H]1C(N)=O)[C@@H](C)O)[C@@H](C)O)[C@@H](C)O)[C@@H](C)O [compound 68, [N-terminal(acetyl), des1, 4K(C20 diacid-gGlu), 30S, 31G]mimylin] (Ac-ASK([γGlu-C20 diacid])LSTAALGRLSAELHELATLPRTETGSGSP-NH2) |  |  |  |  |  |  |  |  | 0.027 | 0.037 |  | ≥ 200 | ≥ 200 | ≥ 200 | ≥ 200 | ≥ 200 | ≥ 200 | ≥ 200 | ≥ 200
4 | CC(C)C[C@H](NC(=O)[C@H](CCCNC(=N)N)NC(=O)CNC(=O)[C@H](CC(C)C)NC(=O)[C@@H](NC(=O)[C@H](C)NC(=O)[C@@H](NC(=O)[C@H](CO)NC(=O)[C@H](CC(C)C)NC(=O)[C@H](CCC(=O)O)NC(=O)[C@H](CO)NC(=O)[C@H](C)NC(=O)CC[C@H](NC(=O)CCCCCCCCCCCCCCCCCCC(=O)O)C(=O)O)[C@@H](C)O)C(C)C)C(=O)N[C@@H](CO)C(=O)N[C@@H](CCC(N)=O)C(=O)N[C@@H](CCC(=O)O)C(=O)N[C@@H](CC(C)C)C(=O)N[C@@H](Cc1c[nH]cn1)C(=O)N[C@@H](CCC(=O)O)C(=O)N[C@@H](CC(C)C)C(=O)N[C@@H](CCC(N)=O)C(=O)N[C@H](C(=O)N[C@@H](Cc1ccc(O)cc1)C(=O)N1CCC[C@H]1C(=O)N[C@@H](CCCNC(=N)N)C(=O)N[C@H](C(=O)N[C@@H](CCC(=O)O)C(=O)N[C@H](C(=O)NCC(=O)N[C@@H](CO)C(=O)NCC(=O)N[C@H](C(=O)N[C@@H](Cc1ccc(O)cc1)C(N)=O)[C@@H](C)O)[C@@H](C)O)[C@@H](C)O)[C@@H](C)O [compound 114, [N-terminal(C20 diacid-gGlu), des1, 9V, 15Q, 21Q, 23Y, 30S, 31G, 32T, 33Y]mimylin] |  |  |  |  |  |  |  |  |  | 0.097 | 0.278 | ≥ 200 | ≥ 200 | ≥ 200 | ≥ 200 | ≥ 200 | ≥ 200 | 65 (≈ 257 µg/mL) | 7 (≈ 27.6 µg/mL)
5 | CC(C)C[C@H](NC(=O)[C@H](CCC(=O)O)NC(=O)[C@H](C)NC(=O)[C@@H](NC(=O)[C@H](CC(C)C)NC(=O)[C@H](CCCNC(=N)N)NC(=O)CNC(=O)[C@H](CC(C)C)NC(=O)[C@@H](NC(=O)[C@H](C)NC(=O)[C@@H](NC(=O)[C@@H](NC(=O)[C@H](CC(C)C)NC(=O)[C@H](CCC(=O)O)NC(=O)[C@H](CO)NC(=O)[C@H](C)NC(=O)CC[C@H](NC(=O)CCCCCCCCCCCCCCCCC(=O)O)C(=O)O)[C@@H](C)O)[C@@H](C)O)C(C)C)[C@@H](C)O)C(=O)N[C@@H](Cc1c[nH]cn1)C(=O)N[C@@H](CCC(=O)O)C(=O)N[C@@H](CC(C)C)C(=O)N[C@@H](CCC(=O)O)C(=O)N[C@H](C(=O)N[C@@H](CC(C)C)C(=O)N1CCC[C@H]1C(=O)N[C@@H](CCCNC(=N)N)C(=O)N[C@H](C(=O)N[C@@H](CCC(=O)O)C(=O)N[C@H](C(=O)NCC(=O)N[C@H](C(=O)NCC(=O)N[C@H](C(=O)N1CCC[C@H]1C(N)=O)[C@@H](C)O)[C@@H](C)O)[C@@H](C)O)[C@@H](C)O)[C@@H](C)O [compound 105, [N-terminal(C18 diacid-gGlu), des1, 6T, 9V, 14T, 21E, 30T, 31G, 32T]mimylin] ({C18 diacid-γGlu}-ASELTTAVLGRLTAELHELETLPRTETGTGTP-NH2) |  |  |  |  |  |  |  |  | 0.045 | 0.022 | 22.9 | ≥ 200 | ≥ 200 | ≥ 200 | ≥ 200 | ≥ 200 | ≥ 200 | ≥ 200 | ≥ 200
